The term IC50 denotes the concentration that gives 50% inhibition. A higher IC50 goes with weaker potency. As a reminder, the Ki is the dissociation constant of the complex between target and ligand, obtained from inhibition or displacement. Read a low Ki as higher affinity. By Vmax is commonly meant the rate approached at saturating substrate. In general, inhibition refers to the change of the read-out against control, counted positive when it falls.

One assay has as its target T1, NFS1 H156A (Homo sapiens, UniProt Q9Y697, H156A).
T1 construct: His tag (N); made in house; host or cells: E. coli BL21(DE3)
The assay is described as follows: H2S-producing assay, NFS1 H156A mutant. The format is biochemical. As for the experimental part:
(§1) To further validate the accuracy of the simulated results, the residues Cys158, Glu387, Lys157, and His156 were mutated to alanine using site-directed mutagenesis.
(§2) For the expression and purification of NFS1Δ1-55/ISD11 in E. coli, the plasmid pNFS1-ISD11 was transformed into BL21(DE3) cells. The cells were grown at 37 °C in 1 L cultures of LB medium containing chloramphenicol (50 μg/ml) until the optical density at 600 nm (OD600) reached 0.6–0.8. Protein expression was induced by adding 0.1 mM isopropyl β-D-1-thiogalactopyranoside (IPTG), followed by an additional 12 h of incubation at 25 °C. The cells were harvested by centrifugation at 8000 rpm for 10 min at 4 °C, then resuspended in lysis buffer containing 50 mM phosphate-buffered saline (PBS, pH 7.4), 500 mM NaCl, 100 mg/L lysozyme, 30 mM imidazole, and 1 mM phenylmethanesulfonyl fluoride (PMSF). The resuspended cells were incubated on ice for 1 h, followed by sonication using an Ultrasonic Cell Disruption System (Scientz, Ningbo, China). The supernatant was obtained by centrifugation at 12,000 rpm for 30 min at 4 °C and was loaded onto a HisTrap FF column (GE Healthcare, Chicago, MA, USA) pre-equilibrated with lysis buffer. […] The protein concentration was measured using a BCA protein assay reagent kit (TransGen Biotech, Beijing, China).

Assay [1] relates to A549 cells. The assay can be described thus: Lipid peroxide (LPO) content. The format is cell-based, human. Conditions: 48 h, Erastin 2.5 µM, Compound 53 50 µM, 2-AAPA 20 µM, alone or combined. As for the experimental part: A549 cells were seeded in 10 cm dishes at a density of 2 × 10^6 cells per dish and cultured until they reached 40–60% confluence. […] Lipid peroxidation (LPO) levels were measured using a Lipid Peroxide (LPO) Content Assay Kit (Solarbio, China) following the manufacturer’s instructions.

The target in another assay is T2, human NFS1 (Homo sapiens, UniProt Q9Y697).
T2 construct: His tag (N); made in house; host or cells: E. coli BL21(DE3)
T2 sequence (Q9Y697 56-457): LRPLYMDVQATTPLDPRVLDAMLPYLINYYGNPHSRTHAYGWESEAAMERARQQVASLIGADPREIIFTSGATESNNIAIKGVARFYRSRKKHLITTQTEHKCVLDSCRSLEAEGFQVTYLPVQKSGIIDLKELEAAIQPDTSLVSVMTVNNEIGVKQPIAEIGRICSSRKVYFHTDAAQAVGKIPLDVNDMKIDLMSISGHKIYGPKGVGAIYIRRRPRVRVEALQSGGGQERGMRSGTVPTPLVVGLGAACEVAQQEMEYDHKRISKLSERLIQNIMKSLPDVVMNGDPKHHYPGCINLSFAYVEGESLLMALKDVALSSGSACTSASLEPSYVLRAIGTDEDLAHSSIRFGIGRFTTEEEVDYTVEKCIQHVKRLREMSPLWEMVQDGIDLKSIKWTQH
The assay can be described thus: NFS1 inhibition assay (H2S-producing, methylene blue). The format is biochemical. The protocol:
The 42 candidate compounds were tested for their inhibitory effects on human NFS1 using an in vitro H2S-producing assay. […] Subsequently, the effects of the selected compounds (100 µM) on human NFS1 activity were evaluated.
The activity of NFS1 was determined using a methylene blue assay as described previously, with some modifications. Briefly, reaction mixtures (200 μL) containing 50 mM of Tris-HCl (pH 8.0), 10 μM of PLP, 1 mM of DTT, and 10 μg of NFS1 were preincubated at 37 °C for 3 min. The reaction was then initiated by adding 1 mM of cysteine. After 15 min of incubation at 37 °C, the reaction was quenched by adding 25 μL of 20 mM N,N-dimethyl-p-phenylenediamine in 7.2 M of HCl and 25 μL of 30 mM FeCl3 in 1.2 M of HCl. Subsequently, the reaction mixtures were incubated for another 15 min at 37 °C, followed by centrifugation at 12,000 rpm for 10 minutes to remove the precipitates. The absorbance of the supernatant was measured at 670 nm. A reaction mixture without the substrate cysteine was used as the negative control. The H2S concentration was calculated based on a standard curve prepared using various concentrations of sodium sulfide (Na2S).
For the NFS1 inhibition assays, all test compounds were dissolved in dimethyl sulfoxide (DMSO) to prepare 10 mM stock solutions, which were stored at −80 °C. The stock solutions were diluted to the appropriate concentrations with 50 mM of Tris-HCl (pH 8.0) as required for the experiments. A reaction mixture containing DMSO but no test compounds was used as a negative control. The dose-dependent effects of the inhibitors on NFS1 activity were determined using the methylene blue assay described above. The IC50 values of the inhibitors were calculated by adding different concentrations of the inhibitors to the enzyme reaction mixtures.

In the next assay the target is T3, NFS1 K157A (Homo sapiens, UniProt Q9Y697, K157A).
T3 construct: His tag (N); made in house; host or cells: E. coli BL21(DE3)
T3 sequence (Q9Y697 56-457 K157A): as the sequence (Q9Y697 56-457) above, with K102A counted along it
The assay can be described thus: H2S-producing assay, NFS1 K157A mutant. The format is biochemical. As for the experimental part: as §1, §2

The next assay deals with T4, NFS1 E387A (Homo sapiens, UniProt Q9Y697, E387A).
T4 construct: His tag (N); made in house; host or cells: E. coli BL21(DE3)
T4 sequence (Q9Y697 56-457 E387A): as the sequence (Q9Y697 56-457) above, with E332A counted along it
The assay can be described thus: H2S-producing assay, NFS1 E387A mutant. The format is biochemical. As for the experimental part: as §1, §2

The test system of assay [2] is A549 cells. The assay can be described thus: Endogenous ROS levels, DCFH-DA fluorescence. The format is cell-based, human. The settings on record: 48 h, Compound 53 50 µM, Erastin 2.5 µM, 2-AAPA 20 µM. The protocol:
Endogenous ROS levels in A549 cells were detected using the fluorescent dye DCFH-DA [48, 49]. A549 cells were cultured in DMEM supplemented with 10% fetal bovine serum at 37 °C in a humidified atmosphere containing 5% CO2. […] Subsequently, the cells were washed three times with prewarmed PBS, and fresh medium containing 10 μM of DCFH-DA was added. After 30 min of incubation, the cells were washed again with prewarmed PBS, fresh medium was added, and the cells were imaged using an inverted fluorescence microscope (Leica, Wetzlar, Germany). Images of live cells were acquired in six different fields. ImageJ software was used to analyze the images.

T1 sequence (Q9Y697 56-457 H156A): as the sequence (Q9Y697 56-457) above, with H101A counted along it

`COc1cc(/C=N/NC(=O)COc2ccc(Cl)cc2Cl)ccc1O` [Compound 53]: the IC50 worked out at 97.3 ± 1.39 µM on NFS1 H156A, 40.5 ± 3.85 µM at human NFS1, 53.2 ± 6.44 µM against NFS1 K157A and 105 ± 3.17 µM at NFS1 E387A. Besides, in the assay on A549 cells [1], the “intracellular lipid peroxide (LPO) levels” value was “no significant changes”. Besides, the Ki on human NFS1 came to 6.4 ± 0.48 µM. Besides, the Vmax on human NFS1 (inhibitor 5 μM) came to 144.2 ± 2.81 nmol/min/mg; on human NFS1 (inhibitor 10 μM) it was 143.3 ± 4.06 nmol/min/mg; at human NFS1 (inhibitor 20 μM) it was 144.1 ± 4.88 nmol/min/mg; on human NFS1 (inhibitor 50 μM), 143.5 ± 4.31 nmol/min/mg; on human NFS1 (inhibitor 100 μM) it was 143.8 ± 8.75 nmol/min/mg. Further, the inhibition at 50 µM at human NFS1 (read-out: inhibition of NFS1 activity) fell in the range of 40 to 50%. At human NFS1 (versus substrate L-cysteine), the “Inhibition Type” value is reported as “competitive inhibitors”. In addition, in the assay with A549 cells [2], the “intracellular ROS levels” value is listed as “did not significantly affect intracellular ROS levels”.

For the origin of these results see paper PMC11942905, “Identification of a Selective Inhibitor of Human NFS1, a Cysteine Desulfurase Involved in Fe-S Cluster Assembly, via Structure-Based Virtual Screening” (International Journal of Molecular Sciences, 2025).
